SMILES strings stand for the structures.

The values below come from patent publication US10781229B2, “Tris- or neopentyl glycol-based amphiphiles and uses thereof” (Industry-University Cooperation Foundation Hanyang …, priority 2015, dated 2020).

For one data set, the target named is LeuT E192C^TMR (Aquifex aeolicus, UniProt O67854, E192C). The data set is described as follows: Site-directed fluorescence (iodide) quenching of LeuT E192C-TMR, Stern-Volmer analysis. It counts as biochemical. From the text:
A principle of this experiment is as follows: A cysteine residue was inserted into a 192th LeuT site (E192C), followed by coupling with a thiol-reactive fluorophore (tetramethylrhodamine-5-maleimide, TMR). The prepared LeuT E192C^TMR, as TMR-coupled LeuT, is an excellent system to sensitively monitor protein structure change in response to ligand coupling. […] Due to such change, TMR fluorescence molecules exposed to an aqueous solution become closer to iodide (I^−), as a quencher dissolved in water, whereby strong fluorescence quenching is caused. TMR quenching intensity by leucine coupling may be represented by Stern-Volmer plotting and thus structural flexibility of a protein may be directly measured. Ligand bindability of the TMR-labeled transporter was measured using SPA while increasing the amount of [^3H]leucine.
In particular, structure, expression, purification, and fluorescence labeling were performed according to the following methods. In accordance with a method disclosed in a paper published by C. B. Billesbolle, et al. (J. Biol. Chem. 2015, 290, 26725-26738), a leucine transporter mutant (LeuT E192C^TMR) was produced and purification and labeling were carried out. In summary, a residue of the E192 was mutated with cysteine using QuikChange (Agilent Technologies) such that fluorescence coupling was accomplished by maleimide labeling. The LeuT mutant was expressed in E. coli C41 (DE3). A membrane of DE3 was disrupted and LeuT was solubilized with 1% (w/v) DDM. Subsequently, LeuT solubilized with the amphipathic molecule was fixed to a Chelating Sepharose Fast Flow resin (GE Healthcare, Little Chalfont, UK), followed by washing with tetramethylrhodamine-5-maleimide (TMR, Life Technologies, Carlsbad, Calif., USA) at 4° C. for 16 hours. Subsequently, LeuT was eluted with a buffer containing 300 mM imidazole, 20 mM Tris-HCl (pH 8.0), 1 mM NaCl, 199 mM KCl, and 0.05% DDM.
Fluorescence spectroscopy was carried out according to the following method. A fluorescence-based experiment was carried out by diluting 0.5 μg ml^−1 of fluorescence-labeled LeuT with buffer A supplemented with CMC+0.04% by weight of DDM, MNG-3 or NDT-C11. Leucine was separately added to specimen aliquots of LeuT for each concentration and incubated for one hour in a room temperature shaker. Steady-state fluorescence intensities were recorded with a FluoroMax4 (Horiba Scientific, Edison, N.J., USA) at λem=572 nm and excitation source at λex=552 nm at 25° C. Quencher-titration was carried out by successive additions of small specimen aliquots containing 1 M KI into buffer A supplemented with 10 mM Na2S2O3. Fluorescence intensities (F) were corrected for sample dilution and normalized to the initial intensity (F0) of a sample. All data was analyzed by linear-(Stern-Volmer plot) or nonlinear regression in GraphPad Prism 6.0 (GraphPad Software). The degree of iodide (I^−) accessibility was obtained from the following Stern-Volmer equation: F0/F=1+Ksv×[Q], where F0/F is normalized fluorescence quenching, Ksv is a Stern-Volmer constant, and [Q] is quencher concentration. When means are calculated as a log, the means are shown as pIC50 and the [s.e.m. interval] from pIC50±s.e.m.
Values of radioligand binding constants were calculated through SPA saturation binding experiments. Values of iodide quenching-response constants and ΔKSV were calculated from a site-directed fluorescence quenching spectroscopy. The affinity (Kd) is shown as means±s.e.m and ΔKSV is shown as means [s.e.m. interval]. All data is shown as means of three to four independent experiments.

Data set [1] is described as follows: Hydrodynamic radius and size distribution of micelles by dynamic light scattering (DLS). In kind it is physicochemical. As for the experimental part:
A method of measuring the radius of a micelle is not specifically limited and may be any method generally known in the art. For example, the radius may be measured by a dynamic light scattering (DLS) experiment.
In particular, critical micellar concentrations (CMCs) were measured using hydrophobic fluorescence staining and diphenylhexatriene (DPH), and hydrodynamic radii (Rh) of micelles formed of each material were measured by a dynamic light scattering (DLS) experiment. Measured results are compared to values of DDM as an existing amphipathic molecule (detergent).
Meanwhile, size distributions of the micelles formed of TDTs and NDTs were measured using DLS. Results are illustrated in FIG. 5. TDTs or NDTs were respectively used in an amount of 0.5% by weight. As a result, micelles of TDTs or NDTs were measured as forming a single community.

The test system of data set [2] is leucine transporter (LeuT). Kind of data set: LeuT stability by [3H]-Leu scintillation proximity assay (SPA). In kind it is biochemical, Aquifex aeolicus. The settings on record: CMC+0.2% by weight, room temperature. As for the experimental part: Experiments to measure the structural stability of a leucine transporter (LeuT) protein by TDTs or NDTs were conducted. LeuT protein activity was measured by scintillation proximity assay (SPA) utilizing [^3H]-Leu as a ligand. The concentration of TDTs, NDTs, or DDM was (a) CMC+0.04% by weight, or (b) CMC+[…].
In particular, the LeuT stability measurement experiments were conducted according to the following methods. Depending upon the results of UapA and MelB, only TDT-C11, TDT-C12, NDT-C10, NDT-C11 and NDT-C12 among the amphipathic molecules according to the present invention were selectively used. In accordance with a method disclosed in a paper published by G. Deckert, et al. (Nature 1998, 392, 353-358), a wild-type leucine transporter (LeuT) was purified from Aquifex aeolicus. LeuT is expressed in E. coli C41 (DE3) transformed with pET16b encoding a C-terminal 8×His-tagged transporter (the expression plasmid was provided by Dr E. Gouaux, Vollum Institute, Portland, Oreg., USA). In summary, the […] protein was isolated and solubilized with 1.0% by weight of DDM, followed by binding the protein to a Ni^2+-NTA resin (Life Technologies, Denmark) and eluting the same with 20 mM Tris-HCl (pH 8.0), 1 mM NaCl, 199 mM KCl, 0.05% DDM, and 300 mM imidazole. Next, about 1.5 mg/ml of a protein stock was 10-fold diluted with a buffer in which DDM and imidazole are absent, but TDTs, NDTs, or DDM (control) is supplemented such that a final concentration becomes CMC+0.04% by weight or CMC+0.2% by weight. Protein samples were stored at room temperature and centrifuged at a predetermined time. To evaluate protein activity, [^3H]-Leu coupling was measured using scintillation proximity assay (SPA) (M. Quick et al., Proc. Natl, Acad. Sci. U.S.A. 2007, 104, 3603-3608). 5 μL of each protein sample dissolved in a buffer that contained 200 mM NaCl and each test compound was analyzed. SPA reaction was carried out in the presence of 20 nM [^3H]-Leu and copper chelate (His-Tag) YSi beads (both purchased from PerkinElmer, Denmark). [^3H]-Leu coupling was measured by means of a MicroBeta liquid scintillation counter (PerkinElmer).
Background: In a scintillation proximity assay essentially only radioactivity close to the scintillant gives light.

Data set [3] deals with T1, melibiose permease (MelB), MelBSt (Salmonella typhimurium, UniProt P30878).
T1 construct: made in house; host or cells: 'Salmonella typhimurium DW2 cell (melB and lacZY)', plasmid pK95AHB/WT MelBSt/CH10
T1 sequence (P30878 whole entry): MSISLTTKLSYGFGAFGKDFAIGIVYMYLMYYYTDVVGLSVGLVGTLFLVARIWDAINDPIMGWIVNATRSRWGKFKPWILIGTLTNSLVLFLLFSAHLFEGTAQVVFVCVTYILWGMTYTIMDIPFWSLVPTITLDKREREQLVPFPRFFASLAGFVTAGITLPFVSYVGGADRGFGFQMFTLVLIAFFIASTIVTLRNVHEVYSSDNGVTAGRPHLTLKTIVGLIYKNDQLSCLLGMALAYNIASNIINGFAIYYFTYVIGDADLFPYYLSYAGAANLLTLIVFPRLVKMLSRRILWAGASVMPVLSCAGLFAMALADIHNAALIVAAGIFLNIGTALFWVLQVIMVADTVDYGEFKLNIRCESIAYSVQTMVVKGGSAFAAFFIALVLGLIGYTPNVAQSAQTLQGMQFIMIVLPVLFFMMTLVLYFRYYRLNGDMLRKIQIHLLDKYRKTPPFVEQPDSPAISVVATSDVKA
The data set is described as follows: MelB extraction efficiency and stability by SDS-PAGE and western immunoblotting. The note with it: 1.5% by weight; for MelB protein solubilization effect versus temperature: 0 to 45° C. and above; for MelB protein extraction efficiency from membrane: 0° C. On the procedure:
Experiments to measure the extraction efficiency and structural stability of a Salmonella typhimurium melibiose permease (MelB) protein by TDTs or NDTs were conducted. The MelB protein was extracted using TDTs, NDTs, or DDM and then the amounts and structures of extracted proteins were quantitatively analyzed by SDS-PAGE and western immunoblotting. The concentrations of the used amphipathic molecules were 1.5% by weight. Protein extraction was carried out at four temperatures (0, 45, 55 or 65° C.) for 90 minutes to simultaneously evaluate the protein extraction efficiency and stabilization ability of the amphipathic molecules.
In particular, in accordance with a method disclosed in a paper (P. S. Chae, et al., Chemistry. 2013, 19, 15645-15651) published by the present inventors, a protein (MelBSt) was produced using a pK95AHB/WT MelBSt/CH10 plasmid and a Salmonella typhimurium DW2 cell (melB and lacZY) to encode wild-type MelB having a 10-His tag at a C-terminal. In accordance with a method disclosed in a paper (Nat. Commun. 2014, 5, 3009) published by A. S. Ethayathulla, et al., cell proliferation and membrane preparation was carried out. Protein analysis was performed using a Micro BCA kit (Thermo Scientific, Rockford, Ill.). So as to measure the solubilization/stability of MelBSt, a membrane sample including MelBSt (final protein concentration of 10 mg/mL) was mixed with a solubilization buffer (20 mM sodium phosphate, pH 7.5, 200 mM NaCl, 10% glycerol, and 20 mM melibiose) and 1.5% (w/v) DDM, TDTs or NDTs. An extracted product was incubated at four temperatures (0, 45, 55 and 65° C.) for 90 minutes. Ultracentrifugation was carried out for 45 minutes at 4° C. and 355,590 g by means of a Beckman Optima™ MAX ultracentrifuge and a TLA-100 rotor. Subsequently, 20 μg of a protein was separated by SDS-16% PAGE and then subjected to immunoblotting with a Penta-His-HRP antibody (Qiagen, Germantown, Md.).
Background: In western blotting, separated proteins are transferred to a membrane and probed.

In the case of `CCCCCCCCCCC(CCCCCCCCCC)(CO[C@@H]1O[C@H](CO)[C@@H](O[C@H]2O[C@H](CO)[C@@H](O)[C@H](O)[C@H]2O)[C@H](O)[C@H]1O)CO[C@@H]1O[C@H](CO)[C@@H](O[C@H]2O[C@H](CO)[C@@H](O)[C@H](O)[C@H]2O)[C@H](O)[C@H]1O` [MNG-3], the “Structural fluidity of the LeuT protein” value on LeuT E192C^TMR (conclusion from ΔKsv) is listed as “tends to greatly limit the structural fluidity”. Moreover, on LeuT E192C^TMR (leucine-induced change of iodide accessibility of TMR, CMC+0.04% by weight detergent, means [s.e.m. interval]), the “Δ KSV” value is 0.4 M⁻¹.

For the compound `CCCCCCCCCC(CCCCCCCCC)COCC(CO[C@@H]1OC(CO)[C@@H](O)C(O)C1O)(CO[C@@H]1OC(CO)[C@@H](O)C(O)C1O)CO[C@@H]1OC(CO)[C@@H](O)C(O)C1O` (stereo partly shown) [NDT-C9], the “Rh (hydrodynamic radius of micelles)” value in data set [1] was 3.1 ± 0.1 nm.

For the compound `CCCCCCCCCCC(CCCCCCCCCC)COCC(CO[C@@H]1OC(CO)[C@@H](O)C(O)C1O)(CO[C@@H]1OC(CO)[C@@H](O)C(O)C1O)CO[C@@H]1OC(CO)[C@@H](O)C(O)C1O` (stereo partly shown) [NDT-C10], the “Rh (hydrodynamic radius of micelles)” value in data set [1] was determined as 3.2 ± 0.1 nm. The “LeuT protein stabilization ability ([3H]-Leu binding)” value in data set [2] is “excellent”.

Regarding `CCCCCCCCCCCCC(CCCCCCCCCCCC)COCC(CO[C@@H]1OC(CO)[C@@H](O)C(O)C1O)(CO[C@@H]1OC(CO)[C@@H](O)C(O)C1O)CO[C@@H]1OC(CO)[C@@H](O)C(O)C1O` (stereo partly shown) [NDT-C12], the “Rh (hydrodynamic radius of micelles)” value in data set [1] was 3.8 ± 0.4 nm. The “MelB protein solubilization effect versus temperature” value in data set [3] is “increase with elevating temperature”. In addition, the “MelB protein extraction efficiency from membrane” value in data set [3] (90 minutes) is recorded as “Slightly decreased solubilization effects”. In data set [2], the “LeuT protein stabilization ability ([3H]-Leu binding)” value is “excellent”.

For `CCCCCCCCCC(CCCCCCCCC)C(=O)NC(CO[C@@H]1OC(CO)[C@@H](O)C(O)C1O)(CO[C@@H]1OC(CO)[C@@H](O)C(O)C1O)CO[C@@H]1OC(CO)[C@@H](O)C(O)C1O` (stereo partly shown) [TDT-C9], the “Rh (hydrodynamic radius of micelles)” value in data set [1] stood at 3.4 ± 0.4 nm.

Consider `CCCCCCCCCCC(CCCCCCCCCC)C(=O)NC(CO[C@@H]1OC(CO)[C@@H](O)C(O)C1O)(CO[C@@H]1OC(CO)[C@@H](O)C(O)C1O)CO[C@@H]1OC(CO)[C@@H](O)C(O)C1O` (stereo partly shown) [TDT-C10], for which the “Rh (hydrodynamic radius of micelles)” value in data set [1] worked out at 4.5 ± 0.2 nm.

Regarding `CCCCCCCCCCCC(CCCCCCCCCCC)C(=O)NC(CO[C@@H]1OC(CO)[C@@H](O)C(O)C1O)(CO[C@@H]1OC(CO)[C@@H](O)C(O)C1O)CO[C@@H]1OC(CO)[C@@H](O)C(O)C1O` (stereo partly shown) [TDT-C11], the “Rh (hydrodynamic radius of micelles)” value in data set [1] is reported as 37 ± 8.0 nm. Besides, the “Amount of MelB protein dissolved” value in data set [3] (55° C., 90 minutes) was determined as 65%.

Take `CCCCCCCCCCCCC(CCCCCCCCCCCC)C(=O)NC(CO[C@@H]1OC(CO)[C@@H](O)C(O)C1O)(CO[C@@H]1OC(CO)[C@@H](O)C(O)C1O)CO[C@@H]1OC(CO)[C@@H](O)C(O)C1O` (stereo partly shown) [TDT-C12]: in data set [1], the “Rh (hydrodynamic radius of micelles)” value is listed as 53 ± 1.2 nm. Besides, the “MelB protein solubilization effect versus temperature” value in data set [3] was “increase with elevating temperature”. Also, the “MelB protein extraction efficiency from membrane” value in data set [3] (90 minutes) is given as “Slightly decreased solubilization effects”.
